Laboratory results as given in patent US9096591B2, “Tetracyclic compounds” (Medivation Technologies, Inc., priority 2007, dated 2015).

What was measured:
[1] = tested on: rat brain mitochondria; assay: Mitochondrial membrane potential (safranine test); type: biochemical, Wistar rats; conditions: compounds did react with safranine in buffer without mitochondria
Procedure: The same experimental conditions were used for the assessment of alterations of the mitochondrial membrane potential, except that safranine was included in incubation medium at a final concentration of 10 mkM and succinate was added before the compounds of the invention. This concentration of safranine was determined before hand as the optimal compromise between signal/baseline ratio and interference of safranine itself with swelling induced by Ca/Pi (safranine tended to enhance Ca/Pi-induced swelling at concentrations above 20 mkM). Changes in the status of the mPT pore were assessed spectrophotometrically at 554 and 524 nm in a cuvette in a Beckman DU 640 spectrophotometer. A554-524 represents the characteristics of mitochondrial potential and A554-characteristics of mitochondrial swelling.

[2] = tested on: rat brain mitochondria; assay: Calcium retention capacity of mitochondria; type: biochemical, Wistar rats; conditions: at concentrations near the IC50
Procedure: Analyses of extramitochondrial Ca^2+ following a bolus dose of Ca^2+ were performed under energized conditions, in a sucrose based buffer (250 mM sucrose, 10 mM HEPES, 1 mM Pi (K), 1 mM MgCl2, 10 μM EGTA, pH 7.2) containing 5 mkM Arsenazo III, 1 μg/ml oligomycin and 20 μM ADP with 5 mM malate and glutamate as respiratory substrates in a cuvette in a Beckman DU 640 spectrophotometer.

[3] = tested on: C57BL/6 mice; conditions: 0.01-0.1 mg/kg; previously shown; cited from earlier work
[4] = tested on: C57BL/6 mice; assay: Recognition of the new object (non-spatial recognition memory); type: in vivo
Source text: (§1) The object recognition test is based on the fact that mice and rats spontaneously explore new object or location of a known object a lot longer than the know object or a known location of an object. This test was first used in rats (Ennaceur A., Delacour J., 1988). It was further shown by others that this type of memory testing is suitable for mice (Dodart J. et al. 1997, Messier C. 1997, Pittenger C. et al., 2002, Ryabinin A. et al., 2002, Sargolini F. et al., 2003). The method of recognition of an object is divided in two stages. The first one involves the recognition of a new location of a known object, which is used to assess spatial memory. The second one includes a test for recognition of a new in order to evaluate the non-spatial memory (Gaffan D., 1992, Kolb B. et al., 1994, Steckler T., 1998). Currently, both are widely used to determine the effectiveness of newly synthesized drugs on memory.
(§2) Dimebon and compounds of the invention were dissolved in distilled water and administered orally at 0.05 mL per 10 g of animal mass 1 hour before the training exercise. All animals in the control group were treated with the equivalent dose of vehicle. The testing was performed 48 hours after the training exercise because animals forget the location of the object during the 48-hour resting time.
The following experiment was also performed on 3-4 months old males (C57BL/6 line) with 10 animals in each group. All animals were kept in the animal facility (5 animals per cage) on the 12×12 hours light cycle (8 am-8 pm) with free access to food and water. However, in this case a round bottom testing chamber 52 cm in diameter (20.5 inches) and 34 cm (13.4 inches) high was used. Similarly, brown glass vials were used as test objects which are 2.7 cm in diameter (1.1 inch) and 5.5 cm high (2.2 inch). The testing compounds were administered orally at 0.05 mL per 10 g of animal mass 1 hour before the training exercise. All animals in the control group were treated with the equivalent dose of vehicle. The testing was performed 48 hours after the training exercise because animals forget the location of the object during the 48-hour resting time.
The experimental procedure was identical to the previously described test (Recognition of a new location of a known object). The major difference is in the testing procedure which involved one known object (brown glass vial) and one unknown object. The second glass vial was substituted with metallic cylinder 3 cm (1.2 inches) in diameter and 4.5 cm (1.8 inches) high.
(§3) Due to fair differences in the amount of time that each animal surveyed the object, the percentage of the survey time for each animal was determined using this formula: tNL/(tFL+tNL)×100 (where t is time, NL—new location(object), and FL—familiar location(object)). As 100% was taken the total amount of time that animals explored both objects. Subsequently, the statistical significance was analyzed using a Student's t-test criteria.

[5] = tested on: mice; assay: recognition test of new location of a known object (spatial memory); type: in vivo
[6] = tested on: C57BL/6 mice; assay: Recognition of a new location of the known object (spatial memory); type: in vivo; conditions: 10 mg/kg
Source text: as §1
All experiments were carried out on 3-4 months old males (C57BL/6 line) 22-26 g weight with 10 animals in each group. All animals were kept in the animal facility (5 animals per cage) on the 12×12 hours light cycle (8 am-8 pm) with free access to food and water. […] Brown glass vials were used as test objects which are 2.7 cm in diameter (1.1 inch) and 5.5 cm high (2.2 inch). All vials were treated with 85% ethanol 2-3 minutes before each testing. Animals were placed in the center of the chamber.
as §2
On the first day animals were brought in the testing room so that they could adapt to the testing environment for 20-30 min. Subsequently, each animal was placed in the empty testing chamber for 10 min, which was wiped with alcohol beforehand. After that animals were transferred back into the […] and returned to the animal facility.
The next day after habituation, the animals were brought back into the testing room where they were weighed and injected with the testing compound. An hour after injection, each animal was placed into the testing camber which had two identical objects that were positioned 14.5 cm (5.7 inches) from the corners on the diagonal. The training exercise lasted for 15 min for each animal. Subsequently, each animal was placed back into the cage and returned into the animal house.
The testing procedure was performed 48 hours after the training exercise. During the procedure two objects were used as in the training exercise. […] The amount of time that each animal spent on exploration each object was determined with 0.1 sec accuracy using two electronic stopwatches for total of 10 min. […] The survey of the object was counted as positive if the nose of an animal was pointed within 2 cm or if the animal was touching the objected directly with the nose.
as §3, with “As 100% was taken the total amount of time that animals explored both objects.” left out

[7] = 0.05 mg/kg, 1 hour prior to training, test 48 hours after training

## CN1CCc2c(c3cc(Cl)ccc3n2CCc2nc(-c3ccccc3)cs2)C1 [Compound C1-8]
[1]
  depolarizing activity in safranine test: depolarizing activity
[2]
  calcium-retention capacity of mitochondria: increased the calcium-retention capacity of mitochondria

## Cc1ccc2c(c1)c1c(n2CCc2ccc(C)nc2)CCN(C)C1 [Dimebon, dimebon, reference compound]
[3]
  effect on memory in the recognition test of a known object in a new location: dose-dependent activating effect on memory
[4]; 0.005 mg/kg
  effect on memory in the new object recognition test: memory activating effect
[4]; [7]
  time spent to recognize the known object, % of the total time: 34.4±4.4%
  time spent to recognize the new object, % of the total time: 65.6±4.4%
[4]; 0.5 mg/kg
  effect on memory in the new object recognition test: not statistically significant
[4]; 1-2 mg/kg
  effect on memory in the new object recognition test: the stimulating effect on memory returned
[5]; Dose of Compound 0.05 mg/kg
  Influence on memory in the test recognition new localization of known object: +
[5]; Dose of Compound 0.1 mg/kg
  Influence on memory in the test recognition new localization of known object: +
[5]; Dose of Compound 0.5 mg/kg
  Influence on memory in the test recognition new localization of known object: −
[5]; Dose of Compound 1.0 mg/kg
  Influence on memory in the test recognition new localization of known object: −
[6]
  time to explore the known object in a new location, % of the total time: 61.2±5%
  time to explore the object in a known position, % of the total time: 38.8±5%
